Tests used:
soybean = test: Test B pre/postemergence soybean; format: in vivo, Glycine max; settings: Preemergence; for Plant response rating, Soybean: Rate 125 g/ha
Outline: (§1)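 Test chemicals in a non-phytotoxic solvent mixture with surfactant were sprayed preemergence onto planted seeds and postemergence onto plants 2 to 18 cm tall (1- to 4-leaf stage). After twelve to sixteen days in a greenhouse, injury was visually rated against untreated controls from 0 (no effect) to 10 (complete control).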

sugar beet = test: Test B pre/postemergence sugar beet; format: in vivo, Beta vulgaris; settings: Preemergence; for Plant response rating, Sugarbeets: Rate 125 g/ha
Outline: as §1

wheat = test: Test B pre/postemergence wheat; format: in vivo, Triticum aestivum; settings: Preemergence; for Plant response rating, Wheat: Rate 125 g/ha
Outline: as §1

pigweed = test: Test B pre/postemergence pigweed; format: in vivo, Amaranthus retroflexus; settings: Preemergence; for Plant response rating, Redroot pigweed: Rate 125 g/ha
Outline: as §1

crabgrass = test: Test B pre/postemergence crabgrass; format: in vivo, Digitaria sanguinalis; settings: Preemergence; for Plant response rating, Crabgrass: Rate 125 g/ha
Outline: as §1

purple nutsedge = test: Test B pre/postemergence purple nutsedge; format: in vivo, Cyperus rotundus; settings: Preemergence; for Plant response rating, Nutsedge: Rate 125 g/ha
Outline: as §1

bedstraw = test: Test B pre/postemergence bedstraw; format: in vivo, Galium aparine; settings: Preemergence; for Plant response rating, Bedstraw: Rate 125 g/ha
Outline: as §1

giant foxtail = test: Test B pre/postemergence giant foxtail; format: in vivo, Setaria faberii; settings: Preemergence; for Plant response rating, Giant foxtail: Rate 125 g/ha
Outline: as §1

cocklebur = test: Test B pre/postemergence cocklebur; format: in vivo, Xanthium strumarium; settings: Preemergence; for Plant response rating, Cocklebur: Rate 125 g/ha
Outline: as §1

wild oat = test: Test B pre/postemergence wild oat; format: in vivo, Avena fatua; settings: Preemergence; for Plant response rating, Wild oats: Rate 125 g/ha
Outline: as §1

rape = test: Test B pre/postemergence rape; format: in vivo, Brassica napus; settings: Preemergence; for Plant response rating, Rape: Rate 125 g/ha
Outline: as §1

blackgrass = test: Test B pre/postemergence blackgrass; format: in vivo, Alopecurus myosuroides; settings: Preemergence; for Plant response rating, Blackgrass: Rate 125 g/ha
Outline: as §1

corn = test: Test B pre/postemergence corn; format: in vivo, Zea mays; settings: Preemergence; for Plant response rating, Corn: Rate 125 g/ha
Outline: as §1

morningglory = test: Test B pre/postemergence morningglory; format: in vivo, Ipomoea hederacea; settings: Preemergence; for Plant response rating, Morningglory: Rate 125 g/ha
Outline: as §1

surinam grass = test: Test B pre/postemergence surinam grass; format: in vivo, Brachiaria decumbens; settings: Preemergence; for Plant response rating, B. signalgrass: Rate 125 g/ha
Outline: as §1

velvetleaf = test: Test B pre/postemergence velvetleaf; format: in vivo, Abutilon theophrasti; settings: Preemergence; for Plant response rating, Velvetleaf: Rate 125 g/ha
Outline: as §1

[1] = Rate 62 g/ha, scale of 0 to 10 where 0 is no effect and 10 is complete control
[2] = scale of 0 to 10 where 0 is no effect and 10 is complete control
[3] = Rate 250 g/ha, scale 0 (no effect) to 10 (complete control)
[4] = Rate 500 g/ha, scale 0 to 10 (0 no effect, 10 complete control)

## CC(C)N(C(=O)n1oc(=O)n(C(C)C(=S)N(C)C)c1=O)c1ccc(F)cc1 (centres unmarked) [Compound 728]
soybean; [1]
  Soybean plant response rating: 0
soybean; [2]
  Plant response rating, Soybean: 0
soybean; [3]
  Soybean plant response rating: 0
soybean; [4]
  Soybean plant response rating: 0
Sugar beet; [1]
  Sugarbeets plant response rating: 0
Sugar beet; [2]
  Plant response rating, Sugarbeets: 0
Sugar beet; [3]
  Sugarbeets plant response rating: 4
Sugar beet; [4]
  Sugarbeets plant response rating: 4
wheat; [1]
  Wheat plant response rating: 0
wheat; [2]
  Plant response rating, Wheat: 0
wheat; [3]
  Wheat plant response rating: 5
wheat; [4]
  Wheat plant response rating: 7
pigweed; [1]
  Redroot pigweed plant response rating: 0
pigweed; [2]
  Plant response rating, Redroot pigweed: 7
pigweed; [3]
  Redroot pigweed plant response rating: 8
pigweed; [4]
  Redroot pigweed plant response rating: 9
crabgrass; [1]
  Crabgrass plant response rating: 6
crabgrass; [2]
  Plant response rating, Crabgrass: 6
crabgrass; [4]
  Crabgrass plant response rating: 7
Purple nutsedge; [1]
  Nutsedge plant response rating: 0
Purple nutsedge; [2]
  Plant response rating, Nutsedge: 0
bedstraw; [1]
  Bedstraw plant response rating: 0
bedstraw; [2]
  Plant response rating, Bedstraw: 0
bedstraw; [3]
  Bedstraw plant response rating: 0
bedstraw; [4]
  Bedstraw plant response rating: 2
Giant foxtail; [1]
  Giant foxtail plant response rating: 4
Giant foxtail; [2]
  Plant response rating, Giant foxtail: 7
Giant foxtail; [3]
  Giant foxtail plant response rating: 8
Giant foxtail; [4]
  Giant foxtail plant response rating: 8
cocklebur; [1]
  Cocklebur plant response rating: 0
cocklebur; [2]
  Plant response rating, Cocklebur: 0
cocklebur; [3]
  Cocklebur plant response rating: 0
cocklebur; [4]
  Cocklebur plant response rating: 0
Wild oat; [1]
  Wild oats plant response rating: 0
Wild oat; [2]
  Plant response rating, Wild oats: 4
Wild oat; [3]
  Wild oats plant response rating: 10
Wild oat; [4]
  Wild oats plant response rating: 10
rape; [1]
  Rape plant response rating: 0
rape; [2]
  Plant response rating, Rape: 3
rape; [3]
  Rape plant response rating: 6
rape; [4]
  Rape plant response rating: 8
blackgrass; [1]
  Blackgrass plant response rating: 0
blackgrass; [2]
  Plant response rating, Blackgrass: 9
blackgrass; [3]
  Blackgrass plant response rating: 9
blackgrass; [4]
  Blackgrass plant response rating: 10
corn; [1]
  Corn plant response rating: 0
corn; [2]
  Plant response rating, Corn: 0
corn; [3]
  Corn plant response rating: 0
corn; [4]
  Corn plant response rating: 0
morningglory; [1]
  Morningglory plant response rating: 0
morningglory; [2]
  Plant response rating, Morningglory: 0
morningglory; [3]
  Morningglory plant response rating: 2
morningglory; [4]
  Morningglory plant response rating: 2
Surinam grass; [1]
  B. signalgrass plant response rating: 5
Surinam grass; [2]
  Plant response rating, B. signalgrass: 8
Surinam grass; [3]
  B. signalgrass plant response rating: 8
Surinam grass; [4]
  B. signalgrass plant response rating: 9
velvetleaf; [1]
  Velvetleaf plant response rating: 0
velvetleaf; [2]
  Plant response rating, Velvetleaf: 0
velvetleaf; [3]
  Velvetleaf plant response rating: 0
velvetleaf; [4]
  Velvetleaf plant response rating: 0

## COC(CCl)n1c(=O)on(C(=O)N(c2ccc(F)cc2F)C(C)C)c1=O (centres unmarked) [Compound 737]
soybean; [2]
  Plant response rating, Soybean: 0
soybean; [3]
  Soybean plant response rating: 0
soybean; Rate 62 g/ha, scale 0 to 10
  Soybean plant response rating: 0
soybean; [4]
  Soybean plant response rating: 0
Sugar beet; [2]
  Plant response rating, Sugarbeets: 5
Sugar beet; [3]
  Sugarbeets plant response rating: 6
Sugar beet; Rate 62 g/ha, scale 0 to 10
  Sugarbeets plant response rating: 1
Sugar beet; [4]
  Sugarbeets plant response rating: 6
wheat; [2]
  Plant response rating, Wheat: 0
wheat; [3]
  Wheat plant response rating: 2
wheat; Rate 62 g/ha, scale 0 to 10
  Wheat plant response rating: 0
wheat; [4]
  Wheat plant response rating: 2
pigweed; [2]
  Plant response rating, Redroot pigweed: 3
pigweed; [3]
  Redroot pigweed plant response rating: 6
pigweed; Rate 62 g/ha, scale 0 to 10
  Redroot pigweed plant response rating: 2
pigweed; [4]
  Redroot pigweed plant response rating: 8
crabgrass; [2]
  Plant response rating, Crabgrass: 9
crabgrass; [3]
  Crabgrass plant response rating: 10
crabgrass; Rate 62 g/ha, scale 0 to 10
  Crabgrass plant response rating: 8
crabgrass; [4]
  Crabgrass plant response rating: 10
Purple nutsedge; [2]
  Plant response rating, Nutsedge: 0
Purple nutsedge; [3]
  Nutsedge plant response rating: 0
Purple nutsedge; Rate 62 g/ha, scale 0 to 10
  Nutsedge plant response rating: 0
Purple nutsedge; [4]
  Nutsedge plant response rating: 0
bedstraw; [2]
  Plant response rating, Bedstraw: 0
bedstraw; [3]
  Bedstraw plant response rating: 0
bedstraw; Rate 62 g/ha, scale 0 to 10
  Bedstraw plant response rating: 0
bedstraw; [4]
  Bedstraw plant response rating: 0
Giant foxtail; [2]
  Plant response rating, Giant foxtail: 10
Giant foxtail; [3]
  Giant foxtail plant response rating: 10
Giant foxtail; Rate 62 g/ha, scale 0 to 10
  Giant foxtail plant response rating: 9
Giant foxtail; [4]
  Giant foxtail plant response rating: 10
cocklebur; [2]
  Plant response rating, Cocklebur: 0
cocklebur; [3]
  Cocklebur plant response rating: 0
cocklebur; Rate 62 g/ha, scale 0 to 10
  Cocklebur plant response rating: 0
cocklebur; [4]
  Cocklebur plant response rating: 0
Wild oat; [2]
  Plant response rating, Wild oats: 6
Wild oat; [3]
  Wild oats plant response rating: 8
Wild oat; Rate 62 g/ha, scale 0 to 10
  Wild oats plant response rating: 5
Wild oat; [4]
  Wild oats plant response rating: 9
rape; [2]
  Plant response rating, Rape: 0
rape; [3]
  Rape plant response rating: 5
rape; Rate 62 g/ha, scale 0 to 10
  Rape plant response rating: 0
rape; [4]
  Rape plant response rating: 6
blackgrass; [2]
  Plant response rating, Blackgrass: 9
blackgrass; [3]
  Blackgrass plant response rating: 9
blackgrass; Rate 62 g/ha, scale 0 to 10
  Blackgrass plant response rating: 6
blackgrass; [4]
  Blackgrass plant response rating: 10
corn; [2]
  Plant response rating, Corn: 2
corn; [3]
  Corn plant response rating: 3
corn; Rate 62 g/ha, scale 0 to 10
  Corn plant response rating: 0
corn; [4]
  Corn plant response rating: 6
morningglory; [2]
  Plant response rating, Morningglory: 2
morningglory; [3]
  Morningglory plant response rating: 2
morningglory; Rate 62 g/ha, scale 0 to 10
  Morningglory plant response rating: 1
morningglory; [4]
  Morningglory plant response rating: 3
Surinam grass; [1]
  B. signalgrass plant response rating: 4
Surinam grass; [2]
  Plant response rating, B. signalgrass: 4
Surinam grass; [3]
  B. signalgrass plant response rating: 8
Surinam grass; [4]
  B. signalgrass plant response rating: 9
velvetleaf; [2]
  Plant response rating, Velvetleaf: 0
velvetleaf; [3]
  Velvetleaf plant response rating: 4
velvetleaf; Rate 62 g/ha, scale 0 to 10
  Velvetleaf plant response rating: 0
velvetleaf; [4]
  Velvetleaf plant response rating: 5
